These results are taken from patent publication US9403855B2 (priority 2010, dated 2016).

In series [1] the target is neuraminidase of A/WSN/1933 (H1N1) (Influenza A virus, UniProt P03470). As to the kind of experiment: biochemical. The arrangement: species or system Influenza virus A/WSN/1933 (H1N1).
The next series concerns A/WSN/1933 (H1N1). As to the kind of experiment: microbe, parasite or virus in culture. The class given is cell-based, Influenza virus A/WSN/1933 (H1N1). The conditions noted are these: Influenza A virus, read-out: EC50 (anti-influenza activity).
For a further series, the system named is A/Udorn/307/1972 (H3N2). Nature of the series: microbe, parasite or virus in culture. Type of series: cell-based, Influenza virus A/Udorn/307/1972 (H3N2). The conditions noted are these: Influenza A virus, H3N2, read-out: EC50 (anti-influenza activity).
A further series can be described thus: in vitro. Particulars: human.
In series [2] the test system is A/Vietnam/1194/2004 RG14 (H5N1). Nature of the series: microbe, parasite or virus in culture. The class given is cell-based, Influenza virus A/Vietnam/1194/2004 RG14 (H5N1). The conditions noted are these: Influenza A virus, H5N1, read-out: EC50 (anti-influenza activity).
Series [3] concerns the target neuraminidase of A/Udorn/307/1972 (H3N2) (Influenza A virus, UniProt P0DOF6). As to the kind of experiment: biochemical. Set-up: species or system Influenza virus A/Udorn/307/1972 (H3N2).
The test system of series [4] is A/California/7/2009 (pandemic H1N1). Nature of the series: microbe, parasite or virus in culture. Type of series: cell-based, Influenza virus A/California/7/2009 (pandemic H1N1). Particulars: Influenza A virus, H1N1, read-out: EC50 (anti-influenza activity).
Series [5] addresses neuraminidase of A/California/7/2009 (pandemic H1N1) (Influenza A virus, UniProt C3W6G3). Nature of the series: biochemical. The arrangement: species or system Influenza virus A/California/7/2009 (pandemic H1N1).
For series [6], the system named is 274H influenza virus (WSN), immobilized. Type of series: binding.
Series [7] relates to mixed 293T cells expressing 274H and 274Y neuraminidase of A/Hanoi/30408/2005 (H5N1). The class given is binding.
Series [8] deals with wild type (274H) neuraminidase of A/Hanoi/30408/2005 (H5N1) on 293T cells. The class given is binding.
For series [9] the following is noted: in vivo; cited from earlier work.

Each structure is given as a SMILES string. Where “and” joins values, the source holds several entries; their conditions need not be identical. Equal entries are not always repeated.

neuraminidase of A/Udorn/307/1972 (H3N2), sequence (P0DOF6 whole entry, looked up): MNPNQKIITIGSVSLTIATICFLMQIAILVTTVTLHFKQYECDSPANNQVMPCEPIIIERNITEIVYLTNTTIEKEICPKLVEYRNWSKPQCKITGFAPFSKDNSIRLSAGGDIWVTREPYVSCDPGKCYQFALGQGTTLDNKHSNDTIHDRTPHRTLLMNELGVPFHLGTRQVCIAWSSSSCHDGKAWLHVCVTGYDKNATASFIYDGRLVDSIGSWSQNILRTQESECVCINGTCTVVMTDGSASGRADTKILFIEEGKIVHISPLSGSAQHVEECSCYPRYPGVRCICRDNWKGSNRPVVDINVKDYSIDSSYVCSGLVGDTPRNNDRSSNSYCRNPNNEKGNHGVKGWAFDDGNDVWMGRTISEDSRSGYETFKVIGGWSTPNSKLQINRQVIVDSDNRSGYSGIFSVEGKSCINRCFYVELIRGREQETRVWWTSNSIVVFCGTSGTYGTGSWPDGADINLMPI
neuraminidase of A/WSN/1933 (H1N1), sequence (P03470 whole entry, looked up): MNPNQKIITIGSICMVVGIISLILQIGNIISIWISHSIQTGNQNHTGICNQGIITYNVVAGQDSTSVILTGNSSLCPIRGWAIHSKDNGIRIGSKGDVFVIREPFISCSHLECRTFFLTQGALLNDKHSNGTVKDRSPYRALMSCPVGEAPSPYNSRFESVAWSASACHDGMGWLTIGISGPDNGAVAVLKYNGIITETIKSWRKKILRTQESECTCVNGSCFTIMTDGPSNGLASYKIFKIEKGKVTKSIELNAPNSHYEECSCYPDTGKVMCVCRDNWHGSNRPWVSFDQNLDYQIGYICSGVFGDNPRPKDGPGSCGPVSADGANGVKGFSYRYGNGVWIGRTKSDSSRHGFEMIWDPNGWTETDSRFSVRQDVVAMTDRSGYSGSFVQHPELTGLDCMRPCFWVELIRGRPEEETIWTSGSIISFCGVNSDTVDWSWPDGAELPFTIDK

As to `CC(=O)N[C@H]1[C@H]([C@H](O)[C@H](O)CO)OC(P(=O)(O)O)=C[C@@H]1N` [1a, (5-Acetamido-4-amino-6-(1,2,3-hydroxy)propyl-4,5,6-trihydropyran-2-yl) phosphonic acid], the half-inhibitory concentration (IC50) – broadly, the point on the concentration scale where inhibition reaches its midpoint – was determined as 0.65 nM in series [1], 6.4 nM in series [3] and 0.9 nM in series [5]. Also, the 50% effective concentration (EC50) – broadly, the concentration at which the effect is half-maximal – with A/WSN/1933 (H1N1) came out at 1.3 nM; in the series with A/Udorn/307/1972 (H3N2), 55 nM; in series [2], 978 nM; in series [4], 20.3 nM. The molecule also came in with a CC50 in the series “in vitro” of over 30000 nM.

With `CC(=O)N[C@H]1[C@H]([C@H](O)[C@H](O)CO)OC(P(=O)(O)O)=C[C@@H]1NC(=N)N` [1b, (5-Acetamido-4-guanidino-6-(1,2,3-hydroxy)propyl-4,5,6-trihydropyran-2-yl) phosphonic acid], the IC50 in series [1] was found to be 1.2 nM; in [3] it was 5.2 nM; in series [5] it was 0.8 nM. For the same molecule, the EC50 in the series on A/WSN/1933 (H1N1) was found to be 2.4 nM; with A/Udorn/307/1972 (H3N2), 32 ± 23 nM; in series [2], 1700 ± 500 nM; in series [4], 26.5 nM. This molecule showed a CC50 in the series “in vitro” of over 50000 nM.

Regarding `CCC(CC)O[C@@H]1C=C(C(=O)O)C[C@H](N)[C@H]1NC(C)=O` [Oseltamivir acid, oseltamivir carboxylic acid, reference compound], the EC50 in the series with A/WSN/1933 (H1N1) came out at 12.2 ± 2.3 nM; in the series with A/Udorn/307/1972 (H3N2) it was 3 ± 1.8 nM; in series [2] it was 1250 ± 440 nM; in series [4], 76 nM. The CC50 in the series “in vitro” is over 100000 nM.

With `CC(=O)N[C@H]1[C@H]([C@H](OC(=O)NCc2cn(CCCCCNC(=O)CCCCC3SC[C@@H]4NC(=O)N[C@H]34)nn2)[C@H](O)CO)OC(C(=O)O)=C[C@@H]1NC(=N)N` (stereo partly shown) [ZB], the melting point (commonly the temperature of the solid-liquid transition) fell in the range of 170 to 172 °C. For the same molecule, the “residual ZB binding in OC competition” value in [6] is on record as “about 3%”. Moreover, in series [7], the “percentage of ZB labeled cells” value was 84.4% and 84.62% and 86.07% and 83.58%. Further, the “percentage of ZB labeled cells” value in [8] turned out to be 83.95%.

Turning to `CC(=O)N[C@H]1[C@H]([C@H](O)[C@H](O)CO)OC(C(=O)O)=C[C@@H]1N=C(N)N` [Zanamivir, reference compound], the EC50 in the series with A/WSN/1933 (H1N1) turned out to be 23.5 ± 8.5 nM; in the series on A/Udorn/307/1972 (H3N2) it was 41 ± 6 nM; in [2] it was 16400 ± 2980 nM; in series [4], 267 nM. Also, in series [9], the Bioavailability is 2%. In “in vitro”, this molecule gave a CC50 of over 100000 nM.
